Data from ChEMBL document CHEMBL1201862, “PubChem BioAssay data set” (2004).
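Exposure lasted 48 hours, with cells grown in 96-well plates and compounds tested at five concentrations. Abbreviation: GI50, concentration required for 50% inhibition of growth.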 Calls of active or inactive are those of the source. Rule as the data show it: active = GI50 up to about 1.1 µM and inactive = higher.

How the values were obtained:
Experiment in all cases: DTP human tumour cell line panel, 48 h
786-0 = system: 786-0
BT-549 = system: BT-549
DU-145 = system: DU-145
EKVX = system: EKVX
Hs-578T = system: Hs-578T
K562 = system: K562
OVCAR-4 = system: OVCAR-4
SF-268 = system: SF-268
SR = system: SR
T47D = system: T47D
UACC-257 = system: UACC-257
UACC-62 = system: UACC-62
ACHN = system: ACHN
NCI-H226 = system: NCI-H226
NCI-H522 = system: NCI-H522
OVCAR-3 = system: OVCAR-3
PC-3 = system: PC-3
SK-MEL-2 = system: SK-MEL-2
SW-620 = system: SW-620

O=C(Cc1ccccc1)NNc1nc(NNC(=O)c2ccncc2)nc(Nc2ccccc2)n1
GI50 (786-0): > 10 µM (inactive) | GI50 (BT-549): > 10 µM (inactive) | GI50 (DU-145): > 10 µM (inactive) | GI50 (EKVX): > 10 µM (inactive) | GI50 (Hs-578T): > 10 µM (inactive) | GI50 (K562): > 10 µM (inactive) | GI50 (OVCAR-4): > 10 µM (inactive) | GI50 (SF-268): > 10 µM (inactive) | GI50 (SR): > 10 µM (inactive) | GI50 (T47D): > 10 µM (inactive) | GI50 (UACC-257): > 10 µM (inactive) | GI50 (UACC-62): > 10 µM (inactive)

OC1c2ccccc2CC12Cc1ccccc1C2 (stereo unspecified)
GI50 (786-0): > 100 µM (inactive) | GI50 (ACHN): > 100 µM (inactive) | GI50 (DU-145): > 100 µM (inactive) | GI50 (EKVX): > 100 µM (inactive) | GI50 (Hs-578T): > 100 µM (inactive) | GI50 (K562): 72.4 µM (inactive) | GI50 (NCI-H226): 0.35 µM (active) | GI50 (NCI-H522): 62.5 µM (inactive) | GI50 (OVCAR-3): 90.2 µM (inactive) | GI50 (OVCAR-4): > 100 µM (inactive) | GI50 (PC-3): > 100 µM (inactive) | GI50 (SF-268): > 100 µM (inactive) | GI50 (SK-MEL-2): > 100 µM (inactive) | GI50 (SR): 38.5 µM (inactive) | GI50 (SW-620): > 100 µM (inactive) | GI50 (T47D): > 100 µM (inactive) | GI50 (UACC-257): 44.9 µM (inactive)

COc1ccc(C2OC(=O)c3c2ccc2ccccc32)c(C)c1 (stereo unspecified)
GI50 (786-0): 3.33 µM (inactive) | GI50 (ACHN): 5.93 µM (inactive) | GI50 (BT-549): 10.5 µM (inactive) | GI50 (EKVX): 6.07 µM (inactive) | GI50 (Hs-578T): 3.44 µM (inactive) | GI50 (K562): 0.697 µM (active) | GI50 (NCI-H226): 5.25 µM (inactive) | GI50 (PC-3): 3.27 µM (inactive) | GI50 (SK-MEL-2): 1.34 µM (inactive) | GI50 (SR): 2.42 µM (inactive) | GI50 (SW-620): 1.14 µM (inactive) | GI50 (UACC-257): 3.78 µM (inactive) | GI50 (UACC-62): 7.19 µM (inactive)

CC(C)(C)[Si](C)(C)OCC#C[C@@]1(O)CCCCC1CC(Sc1ccccc1)Sc1ccccc1 (stereo partly specified)
GI50 (786-0): 13.5 µM (inactive) | GI50 (ACHN): 14.4 µM (inactive) | GI50 (BT-549): 19 µM (inactive) | GI50 (DU-145): 15.8 µM (inactive) | GI50 (EKVX): 16.4 µM (inactive) | GI50 (K562): 14.2 µM (inactive) | GI50 (NCI-H226): 15.3 µM (inactive) | GI50 (NCI-H522): 11.4 µM (inactive) | GI50 (OVCAR-3): 12.9 µM (inactive) | GI50 (OVCAR-4): 13.9 µM (inactive) | GI50 (PC-3): 13.5 µM (inactive) | GI50 (SK-MEL-2): 15.8 µM (inactive) | GI50 (SR): 14.8 µM (inactive) | GI50 (SW-620): 15.1 µM (inactive) | GI50 (T47D): 10.7 µM (inactive) | GI50 (UACC-257): 15.5 µM (inactive) | GI50 (UACC-62): 12.9 µM (inactive)

O=C(/C=C/c1ccc(Cl)cc1)c1nc2ccccc2[nH]1
GI50 (786-0): 13 µM (inactive) | GI50 (ACHN): 48.9 µM (inactive) | GI50 (BT-549): 32.9 µM (inactive) | GI50 (DU-145): 12.3 µM (inactive) | GI50 (EKVX): 25.7 µM (inactive) | GI50 (Hs-578T): 72.1 µM (inactive) | GI50 (K562): 5.58 µM (inactive) | GI50 (NCI-H226): 27.5 µM (inactive) | GI50 (NCI-H522): 28.2 µM (inactive) | GI50 (OVCAR-3): 12.9 µM (inactive) | GI50 (OVCAR-4): 19 µM (inactive) | GI50 (PC-3): 19.9 µM (inactive) | GI50 (SF-268): 14.2 µM (inactive) | GI50 (SK-MEL-2): > 100 µM (inactive) | GI50 (SW-620): 13.4 µM (inactive) | GI50 (T47D): 5.78 µM (inactive) | GI50 (UACC-257): 29 µM (inactive) | GI50 (UACC-62): 35.9 µM (inactive)

CC(=O)OC1[C@H](OC(C)=O)C2=C(C)[C@@H](OC(C)=O)C[C@@]2(C(C)(C)O)[C@@H](OC(C)=O)[C@H]2[C@@]1(C)[C@@H](OC(C)=O)CC(OC(C)=O)[C@]21CO1 (stereo partly specified)
GI50 (786-0): > 100 µM (inactive) | GI50 (ACHN): > 100 µM (inactive) | GI50 (DU-145): > 100 µM (inactive) | GI50 (EKVX): > 100 µM (inactive) | GI50 (Hs-578T): > 100 µM (inactive) | GI50 (K562): > 100 µM (inactive) | GI50 (NCI-H226): > 100 µM (inactive) | GI50 (NCI-H522): > 100 µM (inactive) | GI50 (OVCAR-3): > 100 µM (inactive) | GI50 (OVCAR-4): > 100 µM (inactive) | GI50 (PC-3): > 100 µM (inactive) | GI50 (SF-268): > 100 µM (inactive) | GI50 (SK-MEL-2): > 100 µM (inactive) | GI50 (SR): > 100 µM (inactive) | GI50 (SW-620): > 100 µM (inactive) | GI50 (T47D): > 100 µM (inactive) | GI50 (UACC-257): > 100 µM (inactive) | GI50 (UACC-62): > 100 µM (inactive)

Nc1ccc(-c2nc3ccccc3s2)cc1F
GI50 (786-0): 22.6 µM (inactive) | GI50 (ACHN): 22 µM (inactive) | GI50 (BT-549): 68.4 µM (inactive) | GI50 (DU-145): 30.2 µM (inactive) | GI50 (EKVX): 2.59 µM (inactive) | GI50 (Hs-578T): 29.1 µM (inactive) | GI50 (K562): 35.6 µM (inactive) | GI50 (NCI-H226): < 0.01 µM (active) | GI50 (NCI-H522): 20.9 µM (inactive) | GI50 (OVCAR-3): 18.5 µM (inactive) | GI50 (OVCAR-4): 18.7 µM (inactive) | GI50 (PC-3): 21.4 µM (inactive) | GI50 (SF-268): 34 µM (inactive) | GI50 (SK-MEL-2): 19.2 µM (inactive) | GI50 (SR): 23.6 µM (inactive) | GI50 (SW-620): 42.3 µM (inactive) | GI50 (UACC-257): 39.6 µM (inactive) | GI50 (UACC-62): 20.7 µM (inactive)

CC(=O)NCC1(c2ccccc2)CCN(CC2COc3ccccc3O2)CC1 (stereo unspecified) [ACOXATRINE]
GI50 (786-0): > 100 µM (inactive) | GI50 (ACHN): > 100 µM (inactive) | GI50 (DU-145): > 100 µM (inactive) | GI50 (EKVX): > 100 µM (inactive) | GI50 (Hs-578T): > 100 µM (inactive) | GI50 (K562): > 100 µM (inactive) | GI50 (NCI-H226): > 100 µM (inactive) | GI50 (NCI-H522): > 100 µM (inactive) | GI50 (OVCAR-3): > 100 µM (inactive) | GI50 (OVCAR-4): > 100 µM (inactive) | GI50 (PC-3): > 100 µM (inactive) | GI50 (SF-268): > 100 µM (inactive) | GI50 (SK-MEL-2): > 100 µM (inactive) | GI50 (SR): > 100 µM (inactive) | GI50 (SW-620): > 100 µM (inactive) | GI50 (T47D): > 100 µM (inactive) | GI50 (UACC-257): > 100 µM (inactive) | GI50 (UACC-62): > 100 µM (inactive)
